According to article PMC11040665, “Aminothiazolone Inhibitors Disrupt the Protein–RNA Interaction of METTL16 and Modulate the m^6A RNA Modification” (JACS Au, 2024):

Legend:
[1] = target: T1, His-tagged METTL16 MTD (Homo sapiens, UniProt Q86W50); assay: switchSENSE biosensor assay; type: binding; conditions: potassium salt of compound 45 was used
T1 construct: His-tagged METTL16 (1–291) was purified using the same protocol, without protease cleavage; made in house; host or cells: E. coli Rosetta (DE3)
T1 sequence (Q86W50 1-291): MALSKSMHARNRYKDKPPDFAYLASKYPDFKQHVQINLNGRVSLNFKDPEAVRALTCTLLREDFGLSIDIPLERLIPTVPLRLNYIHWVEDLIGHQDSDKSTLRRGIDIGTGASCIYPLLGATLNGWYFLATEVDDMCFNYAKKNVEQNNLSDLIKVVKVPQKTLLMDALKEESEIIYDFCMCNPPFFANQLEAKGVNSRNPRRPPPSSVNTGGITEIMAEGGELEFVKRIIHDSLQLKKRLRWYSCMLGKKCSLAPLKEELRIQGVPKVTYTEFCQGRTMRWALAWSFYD
Protocol: The biosensor assay was performed using a heliX instrument (Dynamic Biosensors) with a heliX adapter chip. The His-capture kit (HK-NTA-1) was used to functionalize and regenerate the chip. 100 nM His-tagged METTL16 MTD was captured to the surface and regenerated with imidazole solution (250 mM in 10 mM Tris, pH 7.4, 140 mM NaCl, 0.05% Tween 20, 50 μM EDTA, 50 μM EGTA) each time after measurement. PE140 buffer was used as the running buffer (10 mM Na2HPO4/NaH2PO4, pH 7.4, 140 mM NaCl, 0.05% Tween 20, 50 μM EDTA) and 0.2% DMSO was used as concertation 0. The association and dissociation flow rates were 200 μL/min, with an association time of 90 s and a dissociation time of 120 s. Data were analyzed using heliOS using the ‘kinetics mono- & biphasic-free amplitudes fitting’ mode.

[2] = target: T2, METTL16 MTD–U6 snRNA Δ interaction (Homo sapiens, UniProt Q86W50); assay: FP assay with Cy5-labeled U6 snRNA Δ; type: binding
T2 construct: METTL16 MTD (1–291) was subcloned to pOPINB plasmid; His tag followed by HRV 3C cleavage site (N, cleaved yes); made in house; host or cells: E. coli Rosetta (DE3)
T2 sequence (Q86W50 1-291): T1 sequence (Q86W50 1-291)

[3] = target: T3, METTL16 (1-291) (Homo sapiens, UniProt Q86W50); assay: Covalent binding evaluation by protein LC–MS; conditions: 30 μM METTL16 (1-291), 100 μM compound, 30 or 150 min
T3 construct: METTL16 MTD (1–291) was subcloned to pOPINB plasmid; His tag followed by HRV 3C cleavage site (N, cleaved yes); made in house; host or cells: E. coli Rosetta (DE3)
T3 sequence (Q86W50 1-291): T1 sequence (Q86W50 1-291)
Protocol: To evaluate whether the aminothiazolones covalently bind to METTL16, we performed the LC–MS analysis after incubating the protein with aminothiazolones for 30 and 150 min, respectively. In the case of covalent binding, we would expect to observe the formation of covalent adducts, which would accrue over time. […] Besides the LC–MS analysis result, an irreversible inhibition counter screening indicated the reversible inhibitory activity of the aminothiazolones (Figure S8A).
Figure S7. Covalent evaluation of METTL16 inhibitors via LC-MS. (A) Deconvoluted mass spectrum of 30 µM METTL16 (1-291) incubated with 1% DMSO for 30 min (left) and 150 min (right). (B), (C), (D) Deconvoluted […]
(right). Expected Mass for METTL16 (1-291), 33455.7 Da. The observed small mass shift of ~50 Da appeared in both the DMSO control and compound-treated samples was probably formed by the solvent used in the LC-MS.
(1 picture or pasted object on this page, not shown here)
For computational docking analysis of aminothiazolones to the RNA binding site of METTL16 (PDB code: 6B91)2 Schrödinger® Maestro 12.3 was used. […]
Chemical states were generated with the ligand preparation module and METTL16 conformation with the protein preparation module. […] The glide dock module was used and the results were evaluated according to interactions between small molecules and METTL16, small molecule orientations, docking scores and solvent exposure patterns. […]
METTL16 MTD protein was diluted in SEC buffer (20mM pH 7.5, 200 mM NaCl, 0.5 mM TCEP,5% v/v glycerol) to a final concentration of 30 µM, and incubated with DMSO or 100 μM compound (final 1% DMSO) at room temperature. After incubation (30 min or 150 min), the samples were analyzed on an Agilent 1260 II Infinity system equipped with an electrospray ion source in positive mode, run through a Desalting cartridge (AdvanceBio Desalting-RP, 2.1 mm, 12.5mm, Agilent) with a gradient of 5-80% HPLC-grade acetonitrile (+ 0.1% TFA) in HPLC-grade water (+ 0.1% TFA) (flowrate: 0.4 mL/min, runtime: 6 min). […]

[4] = system: MDA-MB-231 cells; assay: Colony formation assay; type: cell-based, human; conditions: 7 days, three tested concentrations
Protocol: MDA-MB-231 cells were collected and seeded with the density of 1000 cells per well into 24-well plates; after being cultured overnight, the medium was exchanged and treated with indicated compounds or DMSO (0.5%) as the control. The medium change and treatment were performed every 3 days. After 7 days, the cell culture medium was discarded, and cells were washed with PBS and fixed with 4% paraformaldehyde solution at room temperature for 15 min; the paraformaldehyde solution was removed, and cells were washed with PBS again to remove the paraformaldehyde. Then cells were stained with 0.1% (w/v) crystal violet. After staining for 15 min, the cells were washed with H2O to remove the extra dye and then photographed.

[5] = target: T4, METTL16 MTD–GGACU-containing RNA interaction (Homo sapiens, UniProt Q86W50); assay: EMSA with GGACU-containing RNA; conditions: 5 nM RNA, 600 nM METTL16 MTD
T4 sequence (Q86W50 1-291): T1 sequence (Q86W50 1-291)
Protocol: METTL16 MTD protein (1–291) was incubated with the indicated compound or DMSO in a buffer containing 20 mM HEPES, pH 7.5, 50 mM NaCl, 0.05% v/v Tween 20, and 0.05 mg/mL BGG at room temperature for 30 min; subsequently, FAM-MAT2A-hp1 RNA probe was added and incubated at room temperature for 10 min, the final of protein and RNA are 50 and 5 nM respectively, and 1% DMSO was used as the control. […] The gel was detected and imaged by Chemi Doc MP (Bio-Rad). […] EMSA for testing compounds with GGAUC-motif containing RNA and METTL16 MTD interaction was performed using the method described above, expecting that the final of METTL16 MTD protein and FAM-labeled-GGACU RNA are 600 nM and 5 nM respectively. EMSA for RNA binding: indicated concentrations of fluorophore-labeled RNA were incubated with indicated concentrations of protein in EMSA buffer for 15 min at room temperature, then loaded to native PAGE gels and imaged with the method described above.

[6] = target: T5, METTL16–MAT2A-hp1 mRNA interaction (METTL16 MTD 1–291, FAM-labeled MAT2A-hp1 RNA) (Homo sapiens, UniProt Q86W50); assay: Fluorescence polarization (FP) assay, disruption of METTL16 binding to FAM-MAT2A-hp1 RNA
T5 sequence (Q86W50 1-291): T1 sequence (Q86W50 1-291)
Protocol: The binding of METTL16 to the FAM-labeled RNA probe formed a complex that led to a higher FP signal in comparison to that of the unbound RNA probe (Figure 2A). […] The Z-factor of 0.91 indicated the suitability of the assay condition (Figure S2D). […] In both FP assay and EMSA, a final concentration of 50 nM METTL16 and 5 nM FAM-MAT2A-hp was used. The METTL16 MTD (amino acids 1–291) was used in this study unless specifically indicated otherwise.
The FP assay was performed using 384-well black plates (Corning #4514) in a total reaction volume of 20 μL, with the final concentration of protein and RNA being 50 and 5 nM respectively. Compounds were diluted in FP buffer and incubated with protein for 30 min at room temperature, then FAM-MAT2A-hp1 RNA probe was added and the fluorescence polarization was measured using a TECAN Spark plate reader, under the excitation wavelength of 485 nm and the emission wavelength of 535 nm with bandwidth of 20 nm. 1% DMSO was used as the control. The inhibition was calculated with the equation: inhibition = 100%(Control – X)/(Control – Blank); Control: DMSO with protein and FAM-RNA; Blank: DMSO with FAM-RNA; X: compound with protein and FAM-RNA. The IC50 value was further determined using GraphPad Prism 9. […] The polarization was measured under an excitation wavelength of 630 nm and an emission wavelength of 680 nm with a bandwidth of 20 nm.

SMILES	KA, biosensor assay [1] [M^-1]	Kd [1] [nM]	IC50 [2] [nM]	covalent adduct formation with METTL16 (LC–MS) [3]	inhibition on colony formation, in words [4]	inhibition of METTL16–GGACU RNA binding in EMSA, in words [5]	IC50 [6] [nM]
CN1C(=O)C(=C2SC(NS(=O)(=O)c3ccc(C(=O)O)cc3)=NC2=O)c2cc(Br)ccc21 [Compound 45]	7.43 ± 0.84E+5	1350	2500	no such covalent adduct with a mass shift was observed	did not show obvious inhibition on colony formation	dose-dependently inhibited	1700
O=C1N=C(NS(=O)(=O)c2ccc(C(=O)O)cc2)SC1=C1C(=O)Nc2ccc(Br)cc21 [Compound 47]	5.67 ± 0.48E+5	1760	6400	no such covalent adduct with a mass shift was observed	mild inhibitory activity against colony formation	dose-dependently inhibited	2100
